Results taken from patent US11873267B2, “Functionalized N,N-dialkylamino phenyl ethers and their method of use” (Temple University-Of The Commonwealth System of Higher …, priority 2016, dated 2024).
Where a name gives a salt, the structure may show the parent alone.

Legend:
[1] = test system: Gaucher patient fibroblasts (Coreill Institute, GM08760); assay: GPN induced calcium release phenotypic assay on Gaucher patient fibroblasts; assay type: cell-based, human; conditions: for Maximal % Change in GPN Response: ratio of GPN response with drug / without drug x 100; for EC50: Homo sapiens, Fibroblast, 12-point dilution curve in triplicate
[2] = test system: Wild-type patient fibroblasts (Coriell Institute, GM 005659); conditions: wild type patient cells
Method: Gaucher patient fibroblasts (Coreill Institute, GM08760) were cultured in EMEM with 15% FBS, 1% Pen/Strep at 37° C./5% CO2. Wild-type patient fibroblasts (Coriell Institute, GM 005659) were used as a control cell line. Cells are plated with a MultiFlo dispenser (800 cells/well in 30 μL of complete growth media) in black/clear bottom 384-well plates and cultured for 24 hours at 37° C., 5% CO2. Compounds of the disclosure are then added to the cells (12 point dose response curve, 150 nM to 30 uM final compound concentration using a 5.0 μL of a 7× stock solution (1.05 μM to 210 μM)) under sterile conditions and continued in culture for 72 hours at 37° C., 5% CO2. […] The data from each well were normalized with basal fluorescence by dividing the maximum fluorescence over the entire real time reading by the initial basal fluorescence.
Cells (800 cells/well) were plated with a MultiFlo dispenser (BioTek) and cultured for 24 h at 37° C., 5% CO2. […] Cells were loaded with Screen Quest™ Fluo-8 No Wash Calcium mix (ATT Bio) and analyzed for changes in response to GPN. The data from each well were normalized with basal fluorescence by dividing the maximum fluorescence over the entire real time reading by the initial basal fluorescence. […] EC50 and Hill slope values are determined using a four-parameter dose-response (variable slope) equation in GraphPad Prism.

[3] = test system: β-Glucocerebrosidase (GCase); assay: β-Glucocerebrosidase (GCase) activity in lysates of compound-treated Gaucher patient fibroblasts (4-MUG substrate); assay type: cell-based, human; conditions: 10 μM, 3 days, Gaucher patient fibroblast lysates, no change = 1
Method: Cellular lysates were prepared from compound treated cells and non-treated cells were included as a control. β-Glucocerebrosidase (GCase) activity was directly measured from lysates prepared from treated cells using a fluorescent substrate 4-methylumbelliferyl-β-D-glucopyranoside (MUG). Cells were washed 3× with phosphate-buffered saline (PBS) and detached by scraping. After centrifugation, The pellets were frozen on dry ice, thawed and lysed in McIlvaine (MI) buffer (100 mM sodium citrate, 200 mM sodium phosphate dibasic, 0.25% sodium taurocholate, and 0.1% Triton X-100, pH 5.2 containing protease inhibitors). Lysates are incubated with 3.0 mM 4-methylumbeliferryl-β-glucoside (4-MUG) substrate in MI buffer (50 μL) at 37° C. for 60 minutes. Reactions were stopped by addition of 0.4 M glycine, pH 10.6 (70 μL). Fluorescence was measured on a Clariostar plate reader (BMG Labtech) for one second per well using 355 nm excitation and 460 nm emission. Total protein was determined with the Bradford protein assay kit (BioRad) according to the manufacturer's instructions. The GCase activity measured after compound treatment is normalized to non-treated cells and expressed as relative activity where no change in GCAse activity is equal 1 (FIG. 3).

[4] = Gaucher patient cells, 72 hours compound treatment

SMILES	Maximal % Change in GPN Response [1, 4] [%]	EC50 [1, 4] [µM]	increase in calcium response compared with 0.1% DMSO treated Gaucher patient cells ([1]; 72 hours compound treatment, GPN response) [%]	activity to increase lysosomal calcium signaling (Prestwick Chemical Library screen) ([1]; Gaucher patient cells, 72 hours, confirmed in triplicate)	increase in GPN-induced calcium response [2]	GCase activity relative to non-treated cells [3]
CC/C(=C\c1ccc(OCCN2CCCC2)cc1)c1ccccc1 [Example 3, (E)-1-(2-(4-(2-phenylbut-1-en-1-yl)phenoxy)ethyl)pyrrolidine]	175	5.3	–	–	–	–
CCCCC(C(=O)c1ccc(OCCN(C)C)cc1)c1ccccc1CC (stereo not drawn) [Example 16, 1-(4-(2-(dimethylamino)ethoxy)phenyl)-2-(2-ethylphenyl)hexan-1-one]	138	0.65	–	–	–	–
C=C(C)c1ccccc1C(CCCC)C(=O)c1ccc(OCCN(C)C)cc1 (stereo not drawn) [Example 17]	275	2.2	–	–	–	–
CC(C)CC(C(=O)c1ccc(OCCN(C)C)cc1)c1ccccc1 (stereo not drawn) [Example 14, 1-(4-(2-(Dimethylamino)ethoxy)phenyl)-4-methyl-2-phenylpentan-1-one]	108	0.7	–	–	–	–
CC/C(=C\c1ccc(OCCN(C)C)cc1)c1ccccc1 [Example 1, (E)-N,N-Dimethyl-2-(4-(2-(phenyl)but-1-en-1-yl)phenoxy)ethan-1-amine]	70	6	–	–	–	–
CC/C(=C(\c1ccccc1)c1ccc(OCCN(C)C)cc1)c1ccccc1 [Tamoxifen, reference compound]	–	–	200±50	active compound	40+/−20%	–
CCCCC(C(=O)c1ccc(OCCN(C)C)cc1)c1ccccc1C(C)C (stereo not drawn) [Example 18, 1-(4-(2-(Dimethylamino)ethoxy)phenyl)-2-(2-isopropylphenyl)hexan-1-one]	233	0.33	–	–	–	–
CC/C(=C\c1ccccc1)c1ccc(OCCN(C)C)cc1 [Example 9, (E)-N,N-Dimethyl-2-(4-(1-phenylbut-1-en-2-yl)phenoxy)ethan-1-amine]	53	3	–	–	–	–
CC/C(=C/c1ccc(OCCN(C)C)cc1)c1ccccc1 [Example 2, (Z)—N,N-Dimethyl-2-(4-(2-(phenyl)but-1-en-1-yl)phenoxy)ethan-1-amine trifluoroacetate]	62	14.1	–	–	–	–
CC/C(=C/c1ccc(OCCN(C)C)cc1)c1ccc([N+](=O)[O-])cc1 [Example 6, (Z)—N,N-Dimethyl-2-(4-(2-(4-nitrophenyl)but-1-en-1-yl)phenoxy) ethan-1-amine]	47	4.3	–	–	–	–
CCCCC(=Cc1ccc(OCCN(C)C)cc1)c1ccccc1 (stereo in doubt) [Example 4, (Z)—N,N-dimethyl-2-(4-(2-phenylhex-1-en-1-yl)phenoxy)ethan-1-amine trifluoroacetate]	56	7.2	–	–	–	–
CCCCC(C(=O)c1ccc(OCCN(C)C)cc1)c1ccccc1 (stereo not drawn) [MC150235, 1-(4-(2-(Dimethylamino)ethoxy)phenyl)-2-phenylhexan-1-one]	87	2.4	–	–	–	increase in GCase activity
CC(C)C(C(=O)c1ccc(OCCN(C)C)cc1)c1ccccc1 (stereo not drawn) [Example 11, 1-(4-(2-Dimethylaminoethoxy)-phenyl)-3-methyl-2-phenylbutan-1-one]	54	3.3	–	–	–	–
CC(C)CCC(C(=O)c1ccc(OCCN(C)C)cc1)c1ccccc1 (stereo not drawn) [Example 13]	191	1.5	–	–	–	–
CCC(Cc1ccc(OCCN(C)C)cc1)c1ccccc1 (stereo not drawn) [MC210155, N,N-Dimethyl-2-(4-(2-phenylbutyl)phenoxy)ethan-1-amine trifluoroacetate]	154	4.8	–	–	–	increase in GCase activity
C/C(=C/c1ccc(OCCN2CCCC2)cc1)c1ccccc1 [Example 5, (Z)-1-(2-(4-(2-phenylprop-1-en-1-yl)phenoxy)ethyl)pyrrolidine]	72	2.1	–	–	–	–
CC/C(=C\c1ccccc1)c1ccc(OCCN2CCCC2)cc1 [Example 10, (E)-1-(2-(4-(1-Phenylbut-1-en-2-yl)phenoxy)ethyl)pyrrolidine]	48	1.1	–	–	–	–
C=Cc1ccccc1C(CCCC)C(=O)c1ccc(OCCN(C)C)cc1 (stereo not drawn) [Example 15, 1-(4-(2-(dimethylamino)ethoxy)phenyl)-2-(2-vinylphenyl)hexan-1-one]	217	2.7	–	–	–	–
